How the values were obtained:
Assay type in all cases: functional
Conditions in all cases: read-out: GI
[1] = test system: Echinochloa crus-galli; assay: Herbicidal activity against barnyard grass Echinochloa crus-galli (barnyard grass) assessed as inhibition of stalk growth at 10 mg/L relative to untreated control
[2] = test system: Brassica napus; assay: Herbicidal activity against Brassica napus (oilseed rape) assessed as inhibition of stalk growth at 10 mg/L relative to untreated control
[3] = test system: Brassica napus; assay: Herbicidal activity against Brassica napus (oilseed rape) assessed as inhibition of stalk growth at 100 mg/L relative to untreated control
[4] = test system: Echinochloa crus-galli; assay: Herbicidal activity against barnyard grass Echinochloa crus-galli (barnyard grass) assessed as inhibition of root growth at 10 mg/L relative to untreated control
[5] = test system: Brassica napus; assay: Herbicidal activity against Brassica napus (oilseed rape) assessed as inhibition of root growth at 10 mg/L relative to untreated control
[6] = test system: Echinochloa crus-galli; assay: Herbicidal activity against barnyard grass Echinochloa crus-galli (barnyard grass) assessed as inhibition of stalk growth at 100 mg/L relative to untreated control
[7] = test system: Echinochloa crus-galli; assay: Herbicidal activity against barnyard grass Echinochloa crus-galli (barnyard grass) assessed as inhibition of root growth at 100 mg/L relative to untreated control
[8] = test system: Brassica napus; assay: Herbicidal activity against Brassica napus (oilseed rape) assessed as inhibition of root growth at 100 mg/L relative to untreated control

Row | Compound | inhibition of growth at 10 µg/mL [1] [%] | inhibition of growth at 10 µg/mL [2] [%] | inhibition of growth at 100 µg/mL [3] [%] | inhibition of growth at 10 µg/mL [4] [%] | inhibition of growth at 10 µg/mL [5] [%] | inhibition of growth at 100 µg/mL [6] [%] | inhibition of growth at 100 µg/mL [7] [%] | inhibition of growth at 100 µg/mL [8] [%]
1 | CCOC(=O)c1s/c(=N\CCCCCC/N=c2/sc(C(=O)OCC)c(N)n2-c2ccccc2)n(-c2ccccc2)c1N | 19.2 | 12 | 32 | 34.5 | 21.8 | 38.5 | 69 | 50
2 | CCOC(=O)c1s/c(=N\CCC/N=c2\sc(C(=O)OCC)c(N)n2-c2ccccc2)n(-c2ccccc2)c1N | 3.8 | 12 | 36 | 31 | 7.7 | 34.6 | 58.6 | 41
3 | CCOC(=O)c1s/c(=N\CC/N=c2/sc(C(=O)OCC)c(N)n2-c2ccccc2)n(-c2ccccc2)c1N | 15.4 | 52 | 52 | 37.9 | 39.7 | 34.6 | 58.6 | 76.9
4 | CCOC(=O)c1s/c(=N\c2ccc(OC)cc2)n(-c2ccccc2)c1N | 42.2 | 66 | 92 | 74.4 | 64 | 61.9 | 90.7 | 94.3
5 | CCOC(=O)c1s/c(=N\c2ccc(C)cc2)n(-c2ccccc2)c1N | 25.9 | 44 | 44 | 79.1 | 34 | 49.6 | 88.4 | 79.2
6 | CCOC(=O)c1s/c(=N\c2ccc(Br)cc2)n(-c2ccccc2)c1N | 31.6 | 44 | 72 | 76.7 | 32.1 | 48.1 | 88.4 | 90.6
7 | CCOC(=O)c1s/c(=N\Cc2ccccc2Cl)n(-c2ccccc2)c1N | 12.9 | -13 | 34.8 | 18.8 | -9.3 | 26.5 | 19.4 | 38.6
8 | CCOC(=O)c1s/c(=N\c2ccccc2)n(-c2ccccc2)c1N | 31.6 | 52 | 64 | 69.8 | 37.7 | 43.3 | 86 | 71.7
9 | CCOC(=O)c1s/c(=N\Cc2ccccc2)n(-c2ccccc2)c1N | 40.7 | 20 | 92 | 74.4 | 47.2 | 44.4 | 83.7 | 98.1
10 | CCCC/N=c1\sc(C(=O)OCC)c(N)n1-c1ccccc1 | 19.4 | 0 | 39.1 | 25 | 0 | 22.6 | 34.4 | 29.3
11 | CCCCCC/N=c1\sc(C(=O)OCC)c(N)n1-c1ccccc1 | 33.3 | 64 | 89 | 76.7 | 43.4 | 33.3 | 86 | 92.5
12 | CCC/N=c1\sc(C(=O)OCC)c(N)n1-c1ccccc1 | 9.7 | 4.3 | 26.1 | 50 | 40 | 35.5 | 68.1 | 48
13 | O=C(O)COc1ccc(Cl)cc1Cl [2,4-DICHLOROPHENOXYACETIC ACID] | 33.3 | 87.5 | 91.2 | 90 | 88.8 | 43.5 | 97.5 | 98

— ChEMBL document CHEMBL3046053, “Synthesis, characterization and herbicidal activity of new thiazoline derivatives” (2013)
